A short description of data set [1]: refractive index (Na D-line) (dimensionless). Conditions: 101.33 kPa, Liquid, Standard Abbe refractometry.
For data set [2] the following is noted: 101.33 kPa, Liquid; for speed of sound: Pulse-echo method; for mass density: Vibrating tube method.

Numbers after ± are expanded uncertainties.

On to `CCn1cc[n+](C)c1.O=S(=O)([O-])C(F)(F)F` [1-ethyl-3-methylimidazolium trifluoromethanesulfonate], for which the refractive index worked out at 1.43599 ± 0.00051 in data set [1] (288.15 K); 1.4332 ± 0.00051 in data set [1] (298.15 K); 1.4304 ± 0.00051 in data set [1] (308.15 K); 1.42767 ± 0.00051 in data set [1] (318.15 K); 1.42494 ± 0.00051 in data set [1] (328.15 K).

Take `CC(C)=O` [acetone]: the speed of sound in data set [2] (278.15 K) came to 1256.5 ± 1.2 m/s; in data set [2] (288.15 K), 1210.7 ± 1.2 m/s; in data set [2] (298.15 K), 1165 ± 1.2 m/s; in data set [2] (308.15 K) it was 1118.5 ± 1.2 m/s; in data set [2] (318.15 K), 1073.7 ± 1.1 m/s. The mass density in data set [2] (278.15 K) turned out to be 807.41 ± 0.24 kg/m3; in data set [2] (288.15 K), 796.14 ± 0.24 kg/m3; in data set [2] (298.15 K), 784.76 ± 0.24 kg/m3; in data set [2] (308.15 K), 773.21 ± 0.24 kg/m3; in data set [2] (318.15 K), 761.47 ± 0.24 kg/m3. Moreover, the refractive index in data set [1] (288.15 K) is reported as 1.36146 ± 0.001; in data set [1] (298.15 K), 1.35597 ± 0.001; in data set [1] (308.15 K) it was 1.35054 ± 0.001; in data set [1] (318.15 K), 1.34491 ± 0.001.

For `CCOC(C)=O` [ethyl acetate], the speed of sound worked out at 1231 ± 1.2 m/s in data set [2] (278.15 K); 1185.2 ± 1.2 m/s in data set [2] (288.15 K); 1140 ± 1.2 m/s in data set [2] (298.15 K); 1095.3 ± 1.2 m/s in data set [2] (308.15 K); 1051 ± 1.1 m/s in data set [2] (318.15 K); 1007.4 ± 1.1 m/s in data set [2] (328.15 K). In addition, the mass density was 918.5 ± 0.23 kg/m3 in data set [2] (278.15 K); 906.48 ± 0.23 kg/m3 in data set [2] (288.15 K); 894.33 ± 0.23 kg/m3 in data set [2] (298.15 K); 882.02 ± 0.23 kg/m3 in data set [2] (308.15 K); 869.52 ± 0.23 kg/m3 in data set [2] (318.15 K); 856.85 ± 0.23 kg/m3 in data set [2] (328.15 K). The refractive index in data set [1] (288.15 K) was 1.37519 ± 0.00037; in data set [1] (298.15 K), 1.36994 ± 0.00037; in data set [1] (308.15 K) it was 1.3646 ± 0.00037; in data set [1] (318.15 K), 1.35919 ± 0.00037; in data set [1] (328.15 K) it was 1.35368 ± 0.00037.

In the case of `COC(C)=O` [methyl ethanoate], the speed of sound in data set [2] (278.15 K) came to 1243.5 ± 0.81 m/s; in data set [2] (288.15 K), 1196.8 ± 0.8 m/s; in data set [2] (298.15 K), 1150.7 ± 0.78 m/s; in data set [2] (308.15 K), 1104.7 ± 0.77 m/s; in data set [2] (318.15 K), 1059.2 ± 0.75 m/s. Further, the mass density in data set [2] (278.15 K) amounted to 953.04 ± 0.09 kg/m3; in data set [2] (288.15 K), 940.12 ± 0.1 kg/m3; in data set [2] (298.15 K), 927.01 ± 0.1 kg/m3; in data set [2] (308.15 K), 913.68 ± 0.11 kg/m3; in data set [2] (318.15 K), 900.13 ± 0.11 kg/m3. Besides, the refractive index turned out to be 1.36414 ± 0.00033 in data set [1] (288.15 K), 1.35881 ± 0.00033 in data set [1] (298.15 K), 1.35367 ± 0.00033 in data set [1] (308.15 K) and 1.34823 ± 0.00033 in data set [1] (318.15 K).

(Values after the NIST ThermoML archive (doi:10.1021/je9005618).)
